Tests used:
[1] = Dissociation of complex over time monitored by 1H NMR; type: physicochemical; conditions: for % Dissociation Anions / % Dissociation Acidic: 10 mM Co^II complex; for % Dissociation Anions: 0.40 mM Na2HPO4, 25 mM K2CO3, 100 mM NaCl, pD 7.5-7.9, 12 hours at 37° C.; for % Dissociation Acidic: pD 3.5-3.9, 100 mM NaCl, 12 hours at 37° C.; for dissociation in presence of phosphate and carbonate (in words) / dissociation under acidic conditions (in words): 10 mM complex, 100 mM NaCl; for dissociation in presence of phosphate and carbonate (in words): 0.40 mM Na2HPO4, 25 mM K2CO3, pD 7.5-7.9, 12 hrs at 37° C.; for dissociation under acidic conditions (in words): D2O, pD 3.5-3.9, 1 hr vs 12 hrs (NOPE 4 hrs) at 37° C.
Description: Dissociation of the Co^II complexes was monitored via ^1H NMR spectroscopy of samples incubated at 37° C. over a period of 12 hours. To monitor acid dissociation, samples contained 10 mM Co^II complex, 100 mM NaCl, and 3-5 mM 3-(trimethylsilyl)-1-propanesulfonic acid sodium salt as a standard at pD 3.5-3.9. To assess the complexes in the presence of biologically relevant anions, solutions contained 10 mM Co^II complex, 100 mM NaCl, 0.40 mM Na2HPO4, 25 mM K2CO3, and 5 mM 3-(trimethylsilyl)-1-propanesulfonic acid sodium salt as a standard. Generally, 1024 transients were collected for each spectrum. […]

[2] = Exchange rate constants (omega plot); conditions: 10 mM complex; for kex: 20 mM HEPES pH 7.4, 100 mM NaCl, B1 8-24 μT, presat 4 s, 37° C., 11.7 T
Description: Exchange rate constants were calculated following a previously reported procedure. Measurements of on-resonance (Mz) and off-resonance (Mo) were acquired at different presaturation pulse powers between 350-1000 Hz (8-24 μT) applied for 4 seconds at 37° C. The exchange rate constant (kex) is calculated from the x-intercept from the plot of Mz/(Mo−Mz) against 1/ω1^2 (ω1 in rad/s). The rate constant, kex, is converted into units of s^−1. Samples contained 10 mM Co^II complex, 20 mM HEPES pH 7.4, and 100 mM NaCl.
The exchange rate constants were calculated by using a previously reported procedure. The magnetization of the on-resonance (Mz) and off-resonance (Mo) were acquired at different pre-saturation pulse powers between 350-1090 Hz applied for 4 seconds. To calculate the exchange rate constant (kb), the x-intercept (−1/kb^2) was obtained from the plot of Mz/(Mo−Mz) against 1/ω1^2 (ω1 in rad/s). Samples contained 16 mM [Co(TPT)]Cl2, 200 mM NaCl, and 40 mM MES or HEPES at pH 6.4-7.5. Measurements were carried out at 37° C.

[3] = CEST MR phantom imaging on 4.7 T scanner; conditions: 4 mM complex, pH 7.4-7.5, 37° C.; for % CEST: 20 mM HEPES, 100 mM NaCl, 4.7 T MRI scanner
Description: CEST MR images were acquired at 4.7 Tesla preclinical MR scanner using a 35 mm transceiver coil (ParaVision 3.0.2, Bruker Biospin, Billerica, Mass.) as detailed elsewhere. Two spoiled gradient-echo images (TE/TR=2.1/5010 ms, flip angle=90 deg) were acquired at 37° C. after employing a pulse train comprised of five Gauss pulses ([…] for 1 second each, interpulse delay of 200 μs) applied symmetrically about the bulk water resonance.
Image processing was carried out using in-house software algorithms developed in MATLAB (MathWorks, Natick, Mass.). Each image was normalized to the mean intensity of the buffer/salt phantom, and the mean signal intensity of each compound was sampled. The percent change in signal, or CEST effect (CE), was calculated as: CE=(1−SIon/SIoff)*100%, where SIon and SIoff represent the mean signal intensity of each sample with the pre-saturation pulse applied on- and off-resonance of the exchangeable protons, respectively. CEST images (FIGS. 14, 15) were calculated by determining CE on a pixel-by-pixel basis in MATLAB. To improve visualization of the CEST effect, images were filtered with a spatial averaging filter (kernel size=5×5), background noise was removed using a binary mask of the samples, and a ‘hotiron’ color lookup table was applied. […] Imaging parameters for the FID-FISP acquisition include: matrix=128×128, field of view=3.2×3.2 cm, TE/TR=1.5/3.0 ms, flip angle=90, number of repetitions=20. Processing was carried out as above with the exception that the 20 repetition image datasets were averaged together prior to normalization by the buffer signal intensity. The experiment was repeated with three separate preparations of [Co(CCRM)]^2+.
CEST images were acquired on a 4.7 Tesla preclinical MR scanner using a 35 mm radiofrequency coil and the ParaVision 3.0.2 research platform (Bruker Biospin, Billerica, Mass.). A pair of gradient-echo MR images were acquired at either 37° C. with a pre-saturation pulse train comprised of five 1 second Gauss pulses (12 μT, 200 μs interpulse delay) applied symmetrically about the bulk water resonance (+/−135 ppm). Other pertinent acquisition parameters include: echo time/repetition time=2.1/5010 ms, flip angle=90 deg, acquisition matrix=160×160, slice thickness=2 mm, field of view=32×32 mm, averages=1.
To determine the CEST effect, each image was normalized to the signal intensity of the buffer and salt-only phantom and the normalized image intensity of each phantom was sampled using commercially available software (Analyze 7.0, AnalyzeDirect Inc., Overland Park, Kans.). The percent loss of signal due to […] exchange was calculated using the following equation: % CEST=1−SIon/SIoff, eq. 9 where SIon and SIoff are the image intensities of each sample acquired with on-resonance and off-resonance pre-saturation pulses, respectively. To create the CEST image (FIG. 46), raw k-space data was zero-filled to a 512×512 matrix, reconstructed to spatial domain, filtered with a spatial low-pass filter (kernel size: 11×11) to improve signal-to-noise, and then normalized by image intensity of the buffer and salt-only phantom. The % CEST effect was calculated pixel-by-pixel using the normalized on/off resonance image pair in MATLAB (MathWorks, Natick, Mass.). Phantoms in the CEST image were isolated using binary masking techniques, and a “hot-iron” pseudocolor lookup table was applied to enhance perceptual contrast between samples.

[4] = Displacement of Co^II by Cu^II monitored by UV-vis; type: physicochemical; conditions: 10-fold excess of Cu^II
Description: Samples contained 200 μM Co^II complex, 10 mM MES buffer pH 5.5 and 1, 4, or 10 equivalents of CuCl2. The formation of the Cu^II complexes was monitored at 264 nm, 286 nm, 312 nm and 310 nm for [Cu(TCMT)]^2+, [Cu(NOPE)]^2+, [Cu(TCMC)]^2+, and [Cu(CCRM)]^2+, respectively. A previously reported procedure was followed.

Row | Structure (SMILES) | % Dissociation Anions [1] | % Dissociation Acidic [1] | dissociation in presence of phosphate and carbonate (in words) [1] | dissociation under acidic conditions (in words) [1] | dissociation under acidic conditions within the first hour ([1]; pD 3.5-3.9, 37° C., first hour) | kex, peak at 95 ppm ([2]; peak at 95 ppm, pH 7.4, 37° C.) | kex, peak at 112 ppm ([2]; peak at 112 ppm, pH 7.4, 37° C.) | % CEST, peak at 95 ppm ([3]; peak at 95 ppm, 4.7 T) | % CEST, peak at 112 ppm ([3]; peak at 112 ppm, 4.7 T) | dissociation with competing Cu^II (in words) [4] | kex [2] | % CEST [3] | dissociation with competing Cu^II ([4]; over 4 hours)
1 | NC(=O)CN1CCCN(CC(N)=O)CCN(CC(N)=O)CCCN(CC(N)=O)CC1.[Co+2] [[Co(CCRM)]^2+] | 5% | 95% | doesn't dissociate | doesn't dissociate | 95% | 910 s⁻¹ | 510 s⁻¹ | 5% | 8% | dissociating completely within one hour | – | – | –
2 | NC(=O)CN1CCOCCOCCN(CC(N)=O)CCOCC1.[Co+2] [[Co(NOPE)]^2+] | <1% | 16% | doesn't dissociate | doesn't dissociate | – | – | – | – | – | dissociating completely within one hour | 240 s⁻¹ | 12% | –
3 | NC(=O)CN1CCN(CC(N)=O)CCN(CC(N)=O)CCN(CC(N)=O)CC1.[Co+2] [[Co(TCMC)]^2+] | 2% | 7% | doesn't dissociate | doesn't dissociate | – | – | – | – | – | inert to dissociation | 300 s⁻¹ | 12% | –
4 | NC(=O)CN1CCN(CC(N)=O)CCN(CC(N)=O)CC1.[Co+2] [[Co(TCMT)]^2+] | 5% | 1% | doesn't dissociate | doesn't dissociate | – | – | – | – | – | – | 890 s⁻¹ | 8% | ~15%
